{
  "source": "PubChem BioAssay AID2060892",
  "about": "(Molecular Pharmacology Branch, DTP, NCI, 2025)",
  "tested_on": "HOP-62 complex spheroids with HUVEC/MSC, viability",
  "test": "Anticancer human tumor HOP-62 cell line growth inhibition [RAS];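 further: spheroids exposed to agents for seven days before readout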;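 on viability, T/C: 100% = DMSO vehicle control viability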",
  "details": "for IC50: curve of first compound; for viability, T/C: stronger effect = lower value",
  "procedure,_shortened": "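Multi-cell-type spheroids: tumor cells plus HUVEC endothelial cells and mesenchymal stem cells. RAS-pathway inhibitors were combined with targeted agents, each dosed in half-log steps down from clinical Cmax, or from 10 microM when Cmax was unknown.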",
  "key": {"[1]": {"details": "second compound 0.0316 µM, first compound 0.000949 µM"}, "[2]": {"details": "second compound 0.0316 µM, first compound 0.003 µM"}, "[3]": {"details": "second compound 0.0316 µM, first compound 0.00949 µM"}, "[4]": {"details": "second compound 0.0316 µM, first compound 0.03 µM"}, "[5]": {"details": "second compound 0.0316 µM, first compound 0.0949 µM"}, "[6]": {"details": "second compound 0.0316 µM, first compound 0.3 µM"}, "[7]": {"details": "second compound 0.1 µM, first compound 0.000949 µM"}, "[8]": {"details": "second compound 0.1 µM, first compound 0.003 µM"}, "[9]": {"details": "second compound 0.1 µM, first compound 0.00949 µM"}, "[10]": {"details": "second compound 0.1 µM, first compound 0.03 µM"}, "[11]": {"details": "second compound 0.1 µM, first compound 0.0949 µM"}, "[12]": {"details": "second compound 0.1 µM, first compound 0.3 µM"}, "[13]": {"details": "second compound 0.316 µM, first compound 0.000949 µM"}, "[14]": {"details": "second compound 0.316 µM, first compound 0.003 µM"}, "[15]": {"details": "second compound 0.316 µM, first compound 0.00949 µM"}, "[16]": {"details": "second compound 0.316 µM, first compound 0.03 µM"}, "[17]": {"details": "second compound 0.316 µM, first compound 0.0949 µM"}, "[18]": {"details": "second compound 0.316 µM, first compound 0.3 µM"}, "[19]": {"details": "second compound 1 µM, first compound 0.000949 µM"}, "[20]": {"details": "second compound 1 µM, first compound 0.003 µM"}, "[21]": {"details": "second compound 1 µM, first compound 0.00949 µM"}, "[22]": {"details": "second compound 1 µM, first compound 0.03 µM"}, "[23]": {"details": "second compound 1 µM, first compound 0.0949 µM"}, "[24]": {"details": "second compound 1 µM, first compound 0.3 µM"}, "[25]": {"details": "second compound 3.16 µM, first compound 0.000949 µM"}, "[26]": {"details": "second compound 3.16 µM, first compound 0.003 µM"}, "[27]": {"details": "second compound 3.16 µM, first compound 0.00949 µM"}, "[28]": {"details": "second compound 3.16 µM, first compound 0.03 µM"}, "[29]": {"details": "second compound 3.16 µM, first compound 0.0949 µM"}, "[30]": {"details": "second compound 3.16 µM, first compound 0.3 µM"}, "[31]": {"details": "second compound 10 µM, first compound 0.000949 µM"}, "[32]": {"details": "second compound 10 µM, first compound 0.003 µM"}, "[33]": {"details": "second compound 10 µM, first compound 0.00949 µM"}, "[34]": {"details": "second compound 10 µM, first compound 0.03 µM"}, "[35]": {"details": "second compound 10 µM, first compound 0.0949 µM"}, "[36]": {"details": "second compound 10 µM, first compound 0.3 µM"}},
  "data": [
    {"smiles": "CC1(C)CCC(Nc2ncc(C(F)(F)F)c(-c3c[nH]c4c(P(C)(C)=O)c(C#N)ccc34)n2)CN1", "note": "(centres undefined) + C#Cc1c(F)ccc2cc(O)cc(-c3ncc4c(N5CC6CCC(C5)N6)nc(OCC56CCCN5CC(F)C6)nc4c3F)c12", "values": [
      {"measurement": "IC50", "setting": "second compound 0.0316 µM", "result": 2.01, "unit": "nM"},
      {"measurement": "IC50", "setting": "second compound 0.1 µM", "result": 1.73, "unit": "nM"},
      {"measurement": "IC50", "setting": "second compound 0.316 µM", "result": 2.05, "unit": "nM"},
      {"measurement": "IC50", "setting": "second compound 1 µM", "result": 1.8, "unit": "nM"},
      {"measurement": "IC50", "setting": "second compound 3.16 µM", "result": 1.33, "unit": "nM"},
      {"measurement": "IC50", "setting": "second compound 10 µM", "result": "< 0.949", "unit": "nM"},
      {"measurement": "viability, T/C", "setting": "[1]", "result": 76.3, "unit": "%"},
      {"measurement": "viability, T/C", "setting": "[2]", "result": 35.9, "unit": "%"},
      {"measurement": "viability, T/C", "setting": "[3]", "result": 22.1, "unit": "%"},
      {"measurement": "viability, T/C", "setting": "[4]", "result": 24.1, "unit": "%"},
      {"measurement": "viability, T/C", "setting": "[5]", "result": 27.6, "unit": "%"},
      {"measurement": "viability, T/C", "setting": "[6]", "result": 25.8, "unit": "%"},
      {"measurement": "viability, T/C", "setting": "[7]", "result": 72.1, "unit": "%"},
      {"measurement": "viability, T/C", "setting": "[8]", "result": 30.1, "unit": "%"},
      {"measurement": "viability, T/C", "setting": "[9]", "result": 23.6, "unit": "%"},
      {"measurement": "viability, T/C", "setting": "[10]", "result": 24, "unit": "%"},
      {"measurement": "viability, T/C", "setting": "[11]", "result": 25.8, "unit": "%"},
      {"measurement": "viability, T/C", "setting": "[12]", "result": 28.5, "unit": "%"},
      {"measurement": "viability, T/C", "setting": "[13]", "result": 73.2, "unit": "%"},
      {"measurement": "viability, T/C", "setting": "[14]", "result": 38.5, "unit": "%"},
      {"measurement": "viability, T/C", "setting": "[15]", "result": 21, "unit": "%"},
      {"measurement": "viability, T/C", "setting": "[16]", "result": 21.6, "unit": "%"},
      {"measurement": "viability, T/C", "setting": "[17]", "result": 26, "unit": "%"},
      {"measurement": "viability, T/C", "setting": "[18]", "result": 29.3, "unit": "%"},
      {"measurement": "viability, T/C", "setting": "[19]", "result": 75.3, "unit": "%"},
      {"measurement": "viability, T/C", "setting": "[20]", "result": 29.9, "unit": "%"},
      {"measurement": "viability, T/C", "setting": "[21]", "result": 23.4, "unit": "%"},
      {"measurement": "viability, T/C", "setting": "[22]", "result": 25, "unit": "%"},
      {"measurement": "viability, T/C", "setting": "[23]", "result": 26, "unit": "%"},
      {"measurement": "viability, T/C", "setting": "[24]", "result": 25.2, "unit": "%"},
      {"measurement": "viability, T/C", "setting": "[25]", "result": 57.4, "unit": "%"},
      {"measurement": "viability, T/C", "setting": "[26]", "result": 32.1, "unit": "%"},
      {"measurement": "viability, T/C", "setting": "[27]", "result": 26.4, "unit": "%"},
      {"measurement": "viability, T/C", "setting": "[28]", "result": 24.7, "unit": "%"},
      {"measurement": "viability, T/C", "setting": "[29]", "result": 27.8, "unit": "%"},
      {"measurement": "viability, T/C", "setting": "[30]", "result": 26.4, "unit": "%"},
      {"measurement": "viability, T/C", "setting": "[31]", "result": 47.8, "unit": "%"},
      {"measurement": "viability, T/C", "setting": "[32]", "result": 30.8, "unit": "%"},
      {"measurement": "viability, T/C", "setting": "[33]", "result": 29.3, "unit": "%"},
      {"measurement": "viability, T/C", "setting": "[34]", "result": 28.3, "unit": "%"},
      {"measurement": "viability, T/C", "setting": "[35]", "result": 31, "unit": "%"},
      {"measurement": "viability, T/C", "setting": "[36]", "result": 33.9, "unit": "%"}
    ]},
    {"smiles": "CCc1c2c(nc3ccc(O)cc13)-c1cc3c(c(=O)n1C2)COC(=O)[C@]3(O)CC", "note": "+ C#Cc1c(F)ccc2cc(O)cc(-c3ncc4c(N5CC6CCC(C5)N6)nc(OCC56CCCN5CC(F)C6)nc4c3F)c12", "values": [
      {"measurement": "IC50", "setting": "second compound 0.0316 µM", "result": 1.14, "unit": "nM"},
      {"measurement": "IC50", "setting": "second compound 0.1 µM", "result": 1.31, "unit": "nM"},
      {"measurement": "IC50", "setting": "second compound 0.316 µM", "result": 1.19, "unit": "nM"},
      {"measurement": "IC50", "setting": "second compound 1 µM", "result": 1.23, "unit": "nM"},
      {"measurement": "IC50", "setting": "second compound 3.16 µM", "result": 0.972, "unit": "nM"},
      {"measurement": "IC50", "setting": "second compound 10 µM", "result": "< 0.949", "unit": "nM"},
      {"measurement": "viability, T/C", "setting": "[1]", "result": 56.3, "unit": "%"},
      {"measurement": "viability, T/C", "setting": "[2]", "result": 16.6, "unit": "%"},
      {"measurement": "viability, T/C", "setting": "[3]", "result": 11.4, "unit": "%"},
      {"measurement": "viability, T/C", "setting": "[4]", "result": 5.6, "unit": "%"},
      {"measurement": "viability, T/C", "setting": "[5]", "result": 3.66, "unit": "%"},
      {"measurement": "viability, T/C", "setting": "[6]", "result": 2.78, "unit": "%"},
      {"measurement": "viability, T/C", "setting": "[7]", "result": 62.9, "unit": "%"},
      {"measurement": "viability, T/C", "setting": "[8]", "result": 15.6, "unit": "%"},
      {"measurement": "viability, T/C", "setting": "[9]", "result": 10.1, "unit": "%"},
      {"measurement": "viability, T/C", "setting": "[10]", "result": 4.19, "unit": "%"},
      {"measurement": "viability, T/C", "setting": "[11]", "result": 5.31, "unit": "%"},
      {"measurement": "viability, T/C", "setting": "[12]", "result": 3.12, "unit": "%"},
      {"measurement": "viability, T/C", "setting": "[13]", "result": 59.1, "unit": "%"},
      {"measurement": "viability, T/C", "setting": "[14]", "result": 13.8, "unit": "%"},
      {"measurement": "viability, T/C", "setting": "[15]", "result": 8.76, "unit": "%"},
      {"measurement": "viability, T/C", "setting": "[16]", "result": 5.75, "unit": "%"},
      {"measurement": "viability, T/C", "setting": "[17]", "result": 3.69, "unit": "%"},
      {"measurement": "viability, T/C", "setting": "[18]", "result": 3.17, "unit": "%"},
      {"measurement": "viability, T/C", "setting": "[19]", "result": 60.8, "unit": "%"},
      {"measurement": "viability, T/C", "setting": "[20]", "result": 12.7, "unit": "%"},
      {"measurement": "viability, T/C", "setting": "[21]", "result": 7.48, "unit": "%"},
      {"measurement": "viability, T/C", "setting": "[22]", "result": 3.47, "unit": "%"},
      {"measurement": "viability, T/C", "setting": "[23]", "result": 3.07, "unit": "%"},
      {"measurement": "viability, T/C", "setting": "[24]", "result": 2.06, "unit": "%"},
      {"measurement": "viability, T/C", "setting": "[25]", "result": 51.1, "unit": "%"},
      {"measurement": "viability, T/C", "setting": "[26]", "result": 10.9, "unit": "%"},
      {"measurement": "viability, T/C", "setting": "[27]", "result": 6.45, "unit": "%"},
      {"measurement": "viability, T/C", "setting": "[28]", "result": 3.95, "unit": "%"},
      {"measurement": "viability, T/C", "setting": "[29]", "result": 2.84, "unit": "%"},
      {"measurement": "viability, T/C", "setting": "[30]", "result": 2.67, "unit": "%"},
      {"measurement": "viability, T/C", "setting": "[31]", "result": 26.9, "unit": "%"},
      {"measurement": "viability, T/C", "setting": "[32]", "result": 11.7, "unit": "%"},
      {"measurement": "viability, T/C", "setting": "[33]", "result": 8.96, "unit": "%"},
      {"measurement": "viability, T/C", "setting": "[34]", "result": 4.94, "unit": "%"},
      {"measurement": "viability, T/C", "setting": "[35]", "result": 5.28, "unit": "%"},
      {"measurement": "viability, T/C", "setting": "[36]", "result": 3.97, "unit": "%"}
    ]}
  ]
}
